# Measured values: patent US20050080140A1, “Method for treating or preventing inflammatory disorders” (AnGes MG, Inc., priority 2003, published 2005)
# Tests used:
# HEK-293 cells = experiment: cDNA microarray analysis of cells expressing intracellular PGI2 (PGISwt vs inactive PGISC441A); assay type: cell-based, human; details: ratio of PGISwt to PGISC441A, 36 h
# Description: HEK-293 cells (1.2×10^4 cells/cm^2) were transfected with expression vector for PGISwt or PGISC441A using LipofectAMINE (Invitrogen) and maintained in DMEM containing 10% FBS, 2 mM L-glutamine, 100 U/ml penicillin and […] streptomycin for 36 h. Poly(A+) mRNA (1.5 μg) was prepared from3×10^6 cells using Isogen (Nippon Gene) and Oligotex-dT30 super mRNA purification kit (Takara, Tokyo, Japan). Samples were analyzed by gene expression microarray (GEM) DNA tip containing 9,182 human cDNA clones (HUMAN UniGEM V Ver2.0, IncyteGenomics, Palo Alto, Calif.). Conversion of poly(A+) mRNA to cDNA with incorporation of Cy3- or Cy5-labeled deoxynucleotide-triphosphates (dNTPs), hybridization to arrays coated on glass, quality control and normalization were performed by IncyteGenomics. All data analyses were performed using an average fold change of two assays, and data were expressed as the ratio of PGISwt to PGISC441A.
# In order to identify the downstream mediators of intracellular PGI2-PPARδ signaling pathway, a cDNA microarray analysis of human cells expressing intracellular PGI2 was performed. Based on precious studies of the inventors (Hatae et al., J. Biol. Chem. (2001) 276: 46260-7), a human embryonic kidney cell line (HEK-293) transfected with the expression vector for wild-type PGIS (PGISwt) was used to achieve endogenous expression of intracellular PGI2.
# COX-2 gene = experiment: RT-PCR analysis of COX-2 mRNA; assay type: cell-based, human; details: HUVEC, combination of TNF-α (1 ng/ml) and IL-1β (20 ng/ml), FIG. 5
# Description: For analysis of IL-13, human vascular endothelial cells (1.2×10^4 cells/cm^2) were stimulated with cPGI (10 μM) for 12 h, and total RNA was prepared from stimulated cells with Isogen (Nippon Gene). For analysis of COX-2, human vascular endothelial cells (1.2×10^4 cells/cm^2) were pretreated with TNF-α (1 ng/ml) and IL-1b (20 ng/ml) for 1 h, and then treated with cPGI (0, 10 μM), anti-human IL-13 monoclonal antibody (0, 0.5 μg/ml) and control IgG (0, 0.5 μg/ml) for 12 h to prepare total RNA. The total RNA (0.5 μg) was used for analysis by SuperScript RT-PCR system (Invitrogen) according to the manufacturer's instructions. The oligonucleotide primers used were IL-13-s (5′-[…]-3′ (SEQ ID NO: 6); sense) and IL-13-as (5′-[…]-3′ (SEQ ID NO: 7); antisense) for human IL-13, β-actin-s (5′-[…]-3′ (SEQ ID NO: 8); sense) and β-actin-as (5′-[…]-3′ (SEQ ID NO: 9); antisense) for human β-actin, and COX-2-s (5′-[…]-3′ (SEQ ID NO: 10); sense) and COX-2-as (5′-[…]-3′ (SEQ ID NO: 11); antisense) for human COX-2. For each PCR amplification, 1 μl of cDNA was used in a 50 μl reaction. Reverse transcription-PCR (RT-PCR) for β-actin (25 cycles) was used as an internal control for mRNA abundance. For IL-13 and COX-2 genes, the number of cycles ranged from 25 to 45. […] Samples were normalized based on equivalent expression of β-actin.
# [1] = test system: adhesion between human vascular endothelial cells and monocytic leukocyte U937 cells; experiment: Adherence assay of U937 cells to endothelial monolayers; assay type: cell-based; details: HUVEC, 24 h
# Description: HUVEC (2.5×10^4 cells/cm^2) were cultured in 12-well plates. After 24 h, confluent monolayers were used for adherence assays. Monolayers were preincubated in EGM-2 containing 2% FBS, 0 or 10 ng/ml TNF-α, 0 or 10 ng/ml IL-13 and 0 or 10 μM cPGI with or without anti-IL-13 monoclonal antibody (0.5 μg/ml) at 37° C. for 0 to 24 h. Human monocyte leukocyte U937 cells were cultured in RPMI 1640 (Gibco-Invitrogen) containing 10% FBS, 100 U/ml penicillin and […] streptomycin , labeled with 2.5 μM calcein-AM (Molecular Probes, Eugene, Oreg.) at room temperature for 45 min, washed and resuspended in serum-free EGM-2. The calcein-labeled U937 cells (8×10^4 cells/well) were added to pretreated endothelial cells and incubated with cPGI (0, 10 μM), recombinant IL-13 (0, 10 ng/ml) and anti-IL-13 monoclonal antibody (0, 0.5 μg/ml). U937 cells were allowed to adhere to pretreated endothelial cells for 30 min at 37° C. Adherence was assessed with a fluorescence image analyzer (FLA-2000; Fujifilm, Tokyo, Japan). Plates were scanned before and after washing for total and adherent cells, respectively, and relative adherence was calculated (fold of control).
# PPRE (PPARδ activation) = experiment: PPREx3-luciferase reporter assay; assay type: cell-based, human; details: HUVEC treated with TNF-α 0-10 ng/ml, 24 h, FIG. 4B
# Description: Primary cultured human umbilical vein endothelial cells (HUVEC) and human aortic endothelial cells (HAEC) were obtained from Kurabo Co. Ltd. (Tokyo, Japan) and were cultured in EGM-2 growth medium supplemented with 2% fetal bovine serum (FBS) and a mixture of growth factors according to the supplier's instructions. Total RNA from the cells in culture was prepared with Isogen (Nippon Gene, Tokyo, Japan). Human embryonic kidney HEK-293 cells were cultured in DMEM containing 10% FBS, 2 mM L-glutamine, 100 U/ml penicillin and […] streptomycin as described previously (Hatae et al., J. Biol. Chem. (2001) 276: 46260-7). […] HEK-293 cells were transfected with DNA using lipofectAMINE (Invitrogen, Carlsbad, Calif.) as described previously (Hatae et al., J. Biol. Chem. (2001) 276: 46260-7). Human vascular endothelial cells were transfected with TransIT LT-1 (PanVera Co., Madison, Wis.). Transfections were performed at a ratio of 1 μg of DNA to 3.0 μl of the reagents, and cells were incubated in serum-free EGM-2 at 37° C. for 5 h. Subsequently, cells were grown in fresh EGM-2 containing 2% FBS and a mixture of growth factors for 12 h before analysis. For reporter assay, human vascular endothelial cells (1.2×10^4 cells/cm^2) were cotransfected with 0.2 μg of the PPREx3-luciferase reporter vector and 0.1 μg of β-galactosidase expression vector by use of TransIT LT-1. After 17 h of transfection, cells were washed with PBS, incubated in EGM-2 containing 2% FBS and cPGI (0-100 μM) for 24 h at 37° C., and subjected to luciferase assay as described previously (Hatae et al., J. Biol. Chem. (2001) 276: 46260-7). The luciferase activity of the extract was normalized to β-galactosidase activity.
# [2] = test system: endogenous PGI2 production; experiment: PGI2 assay (6-keto-PGF1α ELISA); assay type: cell-based, human; details: HUVEC, TNF-α 0, 0.1, 1 or 10 ng/ml, 24 h, FIG. 4A
# Description: (§1) Human vascular endothelial cells (1.2×10^4 cells/cm^2) were cultured in EGM-2 containing 2% FBS and several concentrations of cPGI with or without TNF-α for 24 h. Incubation media were collected and stored at −80° C. before assay. Amounts of IL-13 were measured with human IL-13 ELISA system (Amersham Pharmacia Biotech, Buckinghamshire, UK) and amounts of PGI2 were measured as the amounts of 6-keto-PGI1α, a stable metabolite of PGI2, with 6-keto-PGI1α ELISA kit (Cayman Chemical Co., Ann Arbor, Mich.) according to the manufacturers' instructions.
# siRNA duplexes with the following sense and antisense sequences were made: PGIS1, 5′-[…]-3′ (SEQ ID NO: 12; sense) and 5′-[…]-3′ (SEQ ID NO: 13; antisense); PGIS2, 5′-[…]-3′ (SEQ ID NO: 14; sense) and 5′-[…]-3′ (SEQ ID NO: 15; antisense); PGIS3, 5′-[…]-3′ (SEQ ID NO: 16; sense) and 5′-[…] (SEQ ID NO: 17; antisense); and PGIS4, 5′-[…]-3′ (SEQ ID NO:, 18; sense) and 5′-[…]-3′ (SEQ ID NO: 19; antisense). siRNAs were synthesized and annealed by Dharmacon Research Inc. (Lafayette, CO). […] Microsomal fractions of the cells were prepared and analyzed by immunoblotting with anti-PGIS P4 polyclonal antibody as described previously (Hatae et al., J. Biol. Chem. (2001) 276: 46260-7). […] The incubation media were collected, and amounts of 6-keto-PGI1α or IL-13 were measured with ELISA kit.
# IL-13 = IL-13 ELISA of culture medium of human vascular endothelial cells; assay type: cell-based; details: HUVEC treated with TNF-α 0-10 ng/ml, 24 h, FIG. 4C
# Description: as §1
# (§2) siRNA duplexes with the following sense and antisense sequences were made: PGIS1, 5′-[…]-3′ (SEQ ID NO: 12; sense) and 5′-[…]-3′ (SEQ ID NO: 13; antisense); PGIS2, 5′-[…]-3′ (SEQ ID NO: 14; sense) and 5′-[…]-3′ (SEQ ID NO: 15; antisense); PGIS3, 5′-[…]-3′ (SEQ ID NO: 16; sense) and 5′-[…] (SEQ ID NO: 17; antisense); and PGIS4, 5′-[…]-3′ (SEQ ID NO:, 18; sense) and 5′-[…]-3′ (SEQ ID NO: 19; antisense). siRNAs were synthesized and annealed by Dharmacon Research Inc. (Lafayette, CO). Control non-silencing siRNA, a duplex of sense (5′-UUCUCCGAACGUGUCACGUdTdT-3′; SEQ ID NO: 20) and antisense (5′-ACGUGACACGUUCGGAGAAdTdT-3′; SEQ ID NO: 21) sequences, was purchase from Qiagen (Valencia, Calif.). The cells were initially transfected with 200 pmol per well of the annealed RNA mixture or the same amount of control siRNA using LipofectAMINE2000 (Invitrogen), and 12 h later secondly transfected with the same amount of siRNAs using HVJ-liposome transfection kit (GenomeONE; Ishihara Sangyo, Osaka, Japan) according to the manufacturers' instructions. The cells were retransfected with the siRNAs every 3 days using LipofectAMINE2000 and HVJ-liposome, and used for analyses 10 days after transfection. Microsomal fractions of the cells were prepared and analyzed by immunoblotting with anti-PGIS P4 polyclonal antibody as described previously (Hatae et al., J. Biol. Chem. (2001) 276: 46260-7). The cells treated with siRNAs for 10 days were cultured in fresh EGM-2 containing 2% FBS and TNF-α (0, 10 ng/ml). with or without cPGI (10 μM) for 24 h. The incubation media were collected, and amounts of 6-keto-PGI1α or IL-13 were measured with ELISA kit.
# PGIS = experiment: RNAi silencing of PGIS, immunoblotting with anti-PGIS antibody; assay type: cell-based, human; details: HUVEC, siRNA treatment for 10 days, FIG. 6A
# Description: as §2, with “The cells were retransfected with the siRNAs every 3 days using LipofectAMINE2000 and HVJ-liposome, and used for analyses 10 days after transfection.” left out, “The cells treated with siRNAs for 10 days were cultured in fresh EGM-2 containing 2% FBS and TNF-α (0, 10 ng/ml). with or without cPGI (10 μM) for 24 h.” left out
compound,measurement,setting,value
"CCCCC[C@H](O)/C=C/[C@@H]1[C@H]2C/C(=C/CCCC(=O)O)O[C@H]2C[C@H]1O [PGI2, prostacyclin]","Differential expression, IL-13 (NM_002188)",HEK-293 cells,+11.0
same,"Differential expression, Sjogren syndrome antigen (BF897247)",HEK-293 cells,+2.8
same,"Differential expression, aldehyde dehydrogenase 1 family, member A1 (AI050734)",HEK-293 cells,+2.5
same,"Differential expression, butyrophilin, subfamily 3, member A2 (AA482308)",HEK-293 cells,+2.7
same,"Differential expression, isopentenyl-diphosphate delta isomerase (BF698441)",HEK-293 cells,+2.9
same,"Differential expression, mal T-cell differentiation protein (NM_022439)",HEK-293 cells,+7.0 mal
"IL-1: Recombinant human IL-1β, proinflammatory cytokine",expression of COX-2 mRNA,COX-2 gene,induced
IL-13: recombinant human IL-13,TNF-α-induced monocytic leukocyte-endothelial cell adhesion,"[1]; TNF-α 10 ng/ml plus antibody 0.5 μg/ml, cPGI 10 μM or IL-13 10 ng/ml, FIG. 4D lanes 3-5",inhibited
TNF-α,adhesion between U937 cells and endothelial cells,"[1]; TNF-α 10 ng/ml alone, FIG. 4D lanes 1 and 2",increase adhesion
same,expression of COX-2 mRNA,COX-2 gene,induced
same,relative luciferase activity of reporter vector containing PPRE,PPRE (PPARδ activation),increased
same,endogenous PGI2 production,[2],significantly induced
same,production of IL-13,IL-13,increased
"control siRNA: Control non-silencing siRNA duplex (SEQ ID NO: 20, 21) from Qiagen (chain 1 UUCUCCGAACGUGUCACGUNN; chain 2 ACGUGACACGUUCGGAGAANN; listed as RNA, chemistry not fully specified)",endogenous expression of PGIS (Western analysis),PGIS,no effect
